Source: a melting point compilation (Tetko et al.; mined from patent text by program, amines drawn as free bases though some values may be those of a salt)
Residues, ends and D or L forms follow the SMILES beside them. *: point of attachment. For = O=C*

Row | melting point [°C] | Compound
1 | 80 | Cc1cc(CN(Cc2ccco2)c2sc(-c3ccc(C(F)(F)F)cc3)nc2C)ccc1OC(C)(C)C(=O)O
2 | 98 to 101 | CC(C)NS(=O)(=O)NC(C)C
3 | 178 to 179 | CC(=O)NCC(O)(Cn1cncn1)c1ccc(Cl)cc1Cl (configuration not stated)
4 | 200 to 202 | CCOc1sc(C(N)=O)c2c1-c1c(cnn1C)CC2
5 | 92 to 101 | Cc1nn(C)c2ncc3c(c12)CCC(C)C3 (configuration not stated)
6 | 86.5 to 93.5 | Cc1cc(S(=O)(=O)c2c[nH]c3ccc(F)cc23)ccc1C1CCN(C)C1 (configuration not stated)
7 | 52 to 53 | CCCOc1cc([N+](=O)[O-])ccc1Cl
8 | 142 | [N-]=[N+]=CC(=O)c1cccc(S(N)(=O)=O)c1
9 | 167 to 169 | CC(=O)NC1=NN(c2ccc(Cl)cc2)C(C)C1 (configuration not stated)
10 | 178 to 179 | COc1ccc(N2CCN(Cc3n[nH]c4c(F)cccc34)CC2)cc1
11 | 120 to 121 | O=Cc1nn(-c2ccc(Br)cc2)c2c1CCCC2
12 | 111 to 112 | Cc1c(F)cccc1CC(=Cc1ccccc1)[N+](=O)[O-]
13 | 143 to 144 | COc1cc(COc2ncccc2CO)ccc1OCc1nc(-c2ccccc2)oc1C
14 | 144 to 146 | NC(=O)NCCCC(NC(=O)OCc1ccccc1)C(=O)OCc1ccc([N+](=O)[O-])cc1 (configuration not stated)
15 | 259 | CCOC(=O)c1[nH]c(=O)[nH]c(=O)c1[N+](=O)[O-]
16 | 83 | Fc1cc(Br)c(OCc2ccccc2)c(Br)c1
17 | 208 to 210 | N[C@H](Cc1ccc(OC(=O)OCc2ccccc2)cc1)C(=O)O
18 | 120 to 121 | O=C1NCC(Cc2ccc(F)cc2)O1 (configuration not stated)
19 | 98 to 100 | CCOC(=O)C[C@@H]1C(=O)N(S(=O)(=O)c2ccc(OC)cc2)C=C[C@@H]1c1ccco1
20 | 102 | CCS(=O)(=O)ON=C(C#N)c1ccc(OC)cc1
21 | 200 to 203 | NS(=O)(=O)c1cc2cc(OCC(=O)O)ccc2s1
22 | 150 to 152 | CCOC(=O)C1=C(COCCNS(N)(=O)=O)NC(C)=C(C(=O)OC)C1c1ccccc1Cl (configuration not stated)
23 | 115 | Cc1ccc(Cl)cc1NC(=S)n1c(C)c(C)c2ccccc21
24 | 260 to 261 | CC(=O)N1c2c(ccn3c(C)c(C)nc23)[C@@H](O)[C@H](O)[C@H]1c1ccccc1
25 | 124 | COC(=O)C(Cc1ccccc1)NC(=O)C(CC(=O)O)NC=O (stereo not drawn) (For-Asp-Phe-OMe; configuration not given here)

Row | melting point [°C] | Compound
26 | 215 to 220 | CCOC(=O)N1CCN(c2cc3nc(C(C)(C)C)sc3cc2N)CC1
27 | 95 to 96 | CCCc1c(OCCCCCc2nnn[nH]2)ccc(C(C)=O)c1O
28 | 66 | C=CS(=O)(=O)c1ccc(C)cc1
29 | 198 | CC(C)(C)OC(=O)Nc1cc(CO)c(C#Cc2ccc(F)cc2)cc1[N+](=O)[O-]
30 | 228 | COc1ccc2c3c([nH]c2c1[N+](=O)[O-])C(=O)CC3
31 | 105 to 108 | O=C(O)CCCCCc1ccc2ccccc2n1
32 | 102 | CCC(CC)C(=O)Nc1cc(-c2ccccc2)nc(-c2ccccc2)n1
33 | 240 | CCC1c2nc[nH]c2CCN1C(=O)NC (configuration not stated)
34 | 143 to 145 | O=[N+]([O-])c1ccc(CCN2CCN(c3ccc([N+](=O)[O-])cc3)CC2)cc1
35 | 244 to 247 | Cc1ncsc1NC(=O)Nc1ccc(-n2nc(C3CC3)cc2C(F)(F)F)nc1
36 | 150 to 160 | Cc1cc(-n2ccc(=O)[nH]c2=O)cc(Cl)c1Sc1ccc(Cl)cc1
37 | 89 to 91 | CC1(C)Nc2cc(Br)ccc2-n2cccc21
38 | 91 | O=[N+]([O-])c1c(Cl)ccc(S(=O)(=O)Oc2ccccc2)c1Cl
39 | 90 to 92 | Cn1ccc(C=C[N+](=O)[O-])c1
40 | > 260 | CSc1[nH]c(C(C)C)nc(=O)c1C#N
41 | 210 to 212 | CCOC(=O)c1cc(=O)c2ccccc2[nH]1
42 | 111 to 114 | CN(C)C(=O)CC(N)=S
43 | 201 to 203 | O=C1NC(=O)C(Cc2ccc(S(=O)(=O)CCc3ccccc3)cc2)S1 (configuration not stated)
44 | 113 to 114 | O=C(NCc1ccccc1)c1ccc(Cl)nc1
45 | 211 to 213 | O=C(O)c1ccc(-c2ccc3nnn(Cc4c(F)ccc(F)c4Cl)c3n2)cc1F
46 | 140 to 142 | CCOC(=O)NC(=O)NC(=NC(=O)Nc1ccc(Cl)cc1)OC
47 | 143 to 147 | O=C(NCC(C(O)c1ccc([N+](=O)[O-])cc1)N1CCC(Cc2ccccc2)CC1)c1ccccc1 (configuration not stated)
48 | 326 to 330 | O=C(O)c1cc2[nH]c3c(O)cccc3c(=O)n2n1
49 | 224 to 227 | COc1ccc(-c2cnn3c(N)c(-c4ccc(F)c(Cl)c4)c(C)nc23)cc1
50 | 53 to 55 | FC(F)(F)Sc1cc(C(F)(F)F)[nH]c1-c1ccc(Cl)cc1

Row | melting point [°C] | Compound
51 | 81 to 82 | CCOC(=O)C(=CNc1ccn(-c2ccccc2)n1)C(=O)OCC
52 | 173 to 174 | CCOC(=O)Cc1ccc(NC(=O)C(COc2cccc(Cl)c2)NS(=O)(=O)c2ccc(Cl)cc2)cc1 (racemic)
53 | 115 to 119 | C=CCOc1ccc(CC(=O)NCC(=O)O)cc1Cl
54 | 162 to 163 | Cc1ccc2c(c1)C(C(=O)Nc1c(C)cccc1C)c1ccccc1CO2 (configuration not stated)
55 | 190 to 192 | CC(CS)C(=O)N(C)c1cncc(C(=O)O)c1 (configuration not stated)
56 | 104 | CCOCn1c(-c2ccc(Cl)cc2)c(C#N)c(Cl)c1C(F)(F)F
57 | > 300 | COc1ccc(-c2cnc3c(-c4cc(-c5ccccc5)cs4)cnn3c2O)cc1Br
58 | 171 to 172 | COC(=O)c1cccc(NC(N)=S)c1
59 | 95 to 97 | Cc1ccc2onc(O)c2c1
60 | 113 to 116 | CC(C)(C)OC(=O)Nc1ccc(C#Cc2ccc(F)cc2F)cc1N
61 | 86 to 87 | CCCO/N=C(\C(=O)OC)c1csc(NC(=O)CCl)n1
62 | 104 to 106 | CCOC(=O)CCC(=O)NCc1ccc([N+](=O)[O-])cc1
63 | 235 to 237 | COc1cc2c(c3c1OC(C)(C)C3)C(c1ccc(NS(C)(=O)=O)cc1)=NC(C)(C)C2
64 | 238 to 239 | Cc1scc2c1N(C(=O)Cl)c1ccccc1NC2=O
65 | 224 to 226 | CCC(CC)NC1=NS(=O)(=O)c2ccc(Cl)cc2N1
66 | 140 | Cc1cc(-c2nc(-c3ccc(OC(F)(F)F)cc3)no2)nn1Cc1ccnc(N2CCN(C3CC3)CC2)c1
67 | 49 to 51 | O=C(CCc1ccccc1)CN1C(=O)CC1S(=O)c1ccccc1 (mixture of isomers)
68 | 132 to 136 | Cc1ccc(S(=O)(=O)Nc2ccc(Oc3ccc4nc(COc5ccc(CC6SC(=O)NC6=O)cc5)n(C)c4c3)cc2)cc1 (configuration not stated)
69 | 61 to 63 | O=C(O)C(F)Oc1ccccc1 (configuration not stated)
70 | 177 to 179 | CN1CCN(c2ccccc2C=C2CCN(c3ccc(Cl)c(Cl)c3)C2=O)CC1
71 | 82 to 83.5 | CCC(=O)NCc1nc(-c2cc(C(C)(C)C)c(O)c(C(C)(C)C)c2)cs1
72 | 146 | Nc1ccccc1C(O)c1cc(C(F)(F)F)nc2c(C(F)(F)F)cccc12 (configuration not stated)
73 | 160 to 164 | Clc1ccc2c(Nc3ccc(CNC4CCN(Cc5ccccc5)CC4)cc3)ccnc2c1
74 | 189 to 192 | CC(O)(CF)C(=O)Nc1ccc(S(=O)(=O)c2ccccc2)cc1 (configuration not stated)
75 | 174 to 184 | COc1ccccc1-c1ccc(C(=O)N2Cc3ccc(C(=O)N(C)CC(O)CO)n3Cc3ccccc32)cc1C (configuration not stated)

Row | melting point [°C] | Compound
76 | 202 to 204 | COc1ccc2c(c1)S(=O)(=O)C(C(=O)Nc1ccc(F)cc1)C(=O)N2C (configuration not stated)
77 | 99 to 100 | COc1ccc(CCNCC(O)c2ccc(C)cc2)cc1OC (configuration not stated)
78 | 176 to 177 | CN(Cc1cc(C(F)(F)F)cc(C(F)(F)F)c1)C(=O)c1nc(Cl)c2ccccc2c1-c1ccccc1
79 | 229 | CNc1nc(Br)cn2c(Br)cnc12
80 | 111 to 112 | CC(C)(C)OC(=O)N[C@H](Cc1ccc(C(F)(F)F)o1)[C@@H](O)c1ccc(F)cc1 (racemic)
81 | 123 to 124 | CCCCCCCCN1C(=O)NC2(CC(C)(CC)N(CCOC(=O)c3ccccc3)C(C)(CC)C2C)C1=O (configuration not stated)
82 | 241 to 243 | CCN1CCN(Cc2ccc(-c3cc4c(NCc5cccc(Cl)c5)ncnc4[nH]3)cc2)CC1
83 | 139 | CCOC(=O)C1=C(C)N=C(N)C(C)(C(=O)OCC)C1c1ccccc1 (configuration not stated)
84 | 172 to 175 | CN1CCC(c2cc(F)ccc2F)(S(=O)(=O)c2ccc(Cl)cc2)CC1
85 | 114 to 115 | CC1CC(C)CN(C(=O)c2ccc(Cl)cc2)C1 (configuration not stated)
86 | 116 to 119 | CCOC(=O)COc1cccc(-c2cc(O)c(SCCc3ccccc3)c(=O)o2)c1
87 | 217 to 218 | CC(C)/[N+]([O-])=C/c1ccc(O)cc1
88 | 241 to 243 | NC(Cc1cnc2ccccc2c1)C(=O)O (configuration not stated)
89 | 149 | CC(c1ccc(Cl)cc1)N1Cc2sc3ncn(CCN4CCN(c5cccc6ccccc56)CC4)c(=O)c3c2C1 (configuration not stated)
90 | 126 to 127 | C=C1N(CCC)C(=O)OC12CCN(CC=C(c1ccccc1)c1ccccc1)CC2
91 | 269 to 270 | CCCCc1cccc2[nH]c(C(=O)O)cc(=O)c12
92 | 166 to 168 | COc1ccc(C(=O)Nc2ccc(F)cc2F)cc1N
93 | 114 to 117 | CN(C)CCc1[nH]c2ccccc2c1CC(N)=O
94 | 142 | CCOC(=O)C1=C(N)NC(N)=C(C(=O)OCC)C1c1ccccc1[N+](=O)[O-]
95 | 196 to 197 | CCCn1c(COCC)nc2c(N)nc3ccc(OCC(=O)N4CCOCC4)cc3c21
96 | 122 to 131 | COc1ccc2c(Cl)cc(-c3ccc(Cl)c(Cl)c3)nc2c1
97 | 103 to 105 | COC(=O)Cc1c(C)n(-c2ccnc3ccccc23)c2ccc(OC)cc12
98 | 130 | CC(C)Oc1cc(C(C)C)c2c(c1)S(=O)(=O)N(c1c(F)c(F)nc(F)c1F)C2=O

Row | Compound | melting point [°C]
99 | C=CCc1cc(OCCOC)ccc1OCC1(O)CN2CCC1CC2 (configuration not stated) | 58 to 60
100 | O=[N+]([O-])c1ccc(-c2cccc(-c3cn([C@H]4CN5CCC4CC5)nn3)c2)cn1 | 180
101 | CS(=O)c1ncc2n1-c1ccc(Cl)cc1C(c1ccccc1F)=NC2 (configuration not stated) | 95 to 110
102 | CC(=O)OC1CC2CCC3C(CCC4(C)C(O)C(N5CCCCC5)CC34)C2(C)CC1N1CCCCC1 (configuration not stated) | 183
